Assay results published in patent US8604206B2, “Compositions for preventing and/or treating degenerative disorders of the central nervous system” (Amicus Therapeutics, Inc., priority 2009, dated 2013).
Counter-ions that a name gives are not always drawn. Like-named read-outs stand apart in the source and are kept apart here.

How the values were obtained:
GCase [1] = target: GCase (Homo sapiens (Human), UniProt P04062); assay: GCase activity enhancement (EC50, Emax) of Table 2B; format: cell-based; conditions: for increase in GCase activity compared to IFG-tartrate: compared to reference compound IFG-tartrate
[2] = Blood brain barrier penetration, plasma and brain levels after oral administration; format: in vivo, mouse; conditions: mice, single 30 mg/kg (free base equivalent) p.o.
Procedure: For this purpose, 8-week old wild-type male mice (C57BL/6) were administered a single 30 mg/kg (free base equivalent) p.o. dose of reference or test compound by gavage (n=3 mice per time point). Dosing solutions were prepared in water. After dosing, mice were euthanized with CO2 at the following time points: 0-, 0.5-, 1-, and 4-hour post-dose. […] Similarly, brains were collected from each mouse. Plasma was derived by spinning whole blood at 2,700×g for 10 minutes at 4° C. followed by storage on dry ice. Whole brains were washed in cold PBS to remove contaminating blood, blotted dry, flash frozen on dry ice, and ultimately stored at −80° C. until analysis. To prepare brain samples for analysis, 50-100 mg of tissue was homogenized in […] of water/mg tissue. Samples were then clarified by centrifugation. Next, 25 μl of the brain homogenate supernatant or 25 μl of plasma were combined with 25 μl of acetonitrile:water (95/5). […] Samples were again clarified by centrifugation and 75 μl of the supernatant was combined with 75 μl of acetonitrile. Samples were then analyzed for compound levels by LC-MS/MS at PPD Inc. (3230 Deming Way, Middleton, Wis. 53562). In brief, a Thermo Betasil, Silica-100, 50×3 mm, 5μ column equilibrated with a mixture of mobile phase consisting of 5 mM ammonium formate and 0.05% formic acid in (A) 95:5 acetonitrile:water or (B) 70:20:10 methanol:water:acetonitrile was employed. Between 20 and 30 μl sample was injected for analysis. For calculating drug concentrations, raw data for plasma (ng/mL) and brain (ng/g) was converted to nM using the molecular weight of respective compounds and assuming 1 g of tissue is equivalent to 1 mL volume. Concentration as a function of time was plotted in GraphPad Prism version 4.02.

GCase [3] = target: GCase (Mus musculus, UniProt P17439); assay: GCase enhancement in tissues of orally dosed mice; format: in vivo; conditions: 9 doses over 2 weeks
Procedure: The ability of orally administered test compounds ((3R,4R,5S)-5-(difluoromethyl)piperidine-3,4-diol, (3R,4R,5S)-5-(1-fluoroethyl)piperidine-3,4-diol, (3R,4R,5S)-5-((R)-1-fluoropropyl)piperidine-3,4-diol hydrochloride, or (3R,4R,5S)-5-benzylpiperidine-3,4-diol) to elevate GCase levels was assessed in mice. For this purpose, 8-week old wild-type male mice (C57BL/6) were administered a […] p.o. (gavage) dose of a compound of the present invention (i.e., (3R,4R,5S)-5-(difluoromethyl)piperidine-3,4-diol, (3R,4R,5S)-5-(1-fluoroethyl)piperidine-3,4-diol, (3R,4R,5S)-5-((R)-1-fluoropropyl)piperidine-3,4-diol hydrochloride, or (3R,4R,5S)-5-benzylpiperidine-3,4-diol). The dosing solutions were prepared in water. Compounds were administered over 2 weeks as follows: week 1, Mon-Fri (On), Sat-Sun (Off); week 2, Mon-Thu (On); necropsy on Friday. Thus, a total of 9 doses (dosing solutions prepared fresh every day) were given to each mouse, with a 24-hour washout between the last dose and necropsy.
Plasma was collected by spinning blood at 2700 g for 10 minutes at 4° C. Liver, spleen, lung, and brain tissues were removed, washed in cold PBS, blotted dry, flash frozen on dry ice, and stored at −80° C. until analysis. GCase levels were measured by homogenizing approximately 50 mg tissue in 500 μL McIlvane (MI) buffer (100 mM sodium citrate, 200 mM sodium phosphate dibasic, 0.25% sodium taurocholate, and 0.1% Triton X-100, pH 5.2) at pH 5.2 for 3-5 seconds on ice with a micro homogenizer. Homogenates were then incubated at room temperature without and with 2.5 mM conduritol-B-epoxide (CBE) for 30 min. Finally, 3.7 mM 4-methylumbeliferryl-β-glucoside (4-MUG) substrate was added and incubated at 37° C. for 60 min. […] Fluorescence was measured on a plate reader for 1 sec/well using 355 nm excitation and 460 nm emission. Total protein was determined in lysates using the MicroBCA kit according to the manufacturer's instructions. A 4-methylumbelliferone (4-MU) standard curve ranging from 1.0 nM to 50 μM was run in parallel for conversion of raw fluorescence data to absolute GCase activity (in the presence and absence of CBE) and expressed as nanomoles of 4-MU released per milligram of protein per hour (nmol/mg protein/hr). GCase levels and protein levels were calculated using Microsoft Excel (Redmond, Wash.) and GraphPad Prism version 4.02.

lysosomal GCase = lysosomal GCase (Homo sapiens (Human), UniProt P04062); assay: In situ lysosomal GCase inhibition and washout assay in fibroblasts from a normal subject; format: cell-based; conditions: for in situ washout: fibroblasts treated at IC90, then drug-free medium; for IC50: fibroblasts, 16-24 hours with compound, PFBFDβGlu substrate
Procedure: The effect of the novel compounds of the present invention on lysosomal GCase activity was assayed in situ using fibroblasts established from a normal subject. Cells seeded in 48-well plates were incubated with the indicated concentrations of compound for 16-24 hours. For the dose-response assays, cells were incubated with the in situ substrate 5-(pentafluorobenzoylamino)fluorescein di-β-D-glucopyranoside (PFBFDβGlu) for 1 hour and subsequently lysed to determine the extent of substrate hydrolysis in the presence of compound. […] Inhibition was determined as the ratio of activity in the presence of compound to that in the absence of compound. […] Cells were washed extensively and incubated in drug-free medium to allow net compound efflux from cells. Cells were then tested for lysosomal GCase activity at 2 hour intervals over a total period of 8 hours following compound removal. The increase in activity over time was fitted with a single exponential function to determine the compound's washout time.

Rat pharmacokinetics = format: in vivo; conditions: listed as (3R,4R,5S)-5-(1-fluoroethyl)piperidine-3,4-diol-HCl
Procedure: Pharmacokinetic (PK) data was obtained in rats to assess the bioavailability of test compound. In particular, the following PK parameters were calculated: bioavailability as measured by area under the Concentration/Time curve (AUC), fraction of dose available (% F; further defined below), clearance (CL), volume of distribution (Vd), and half-life (t½). […] Three rats were used per dosing group. Blood was collected over a 24-hr period. The time points for blood collection after intravenous administration were: 0, 2.5, 5, 10, 15, 30, 45 min, 1, 2, 4, 8, 12, and 24 hrs; time points for blood collection after p.o. administrations were: 0, 5, 15, 30, 45 min, 1, 2, 3, 4, 8, 12, and 24 hrs. Plasma samples were analyzed for compound levels by LC-MS/MS at PPD. Raw data was analyzed by non-compartmental analysis in Win-nonLin to calculate VD, % F, CL, and t1/2.

[4] = target: recombinant human GCase (rhGCase; Cerezyme®) (Homo sapiens (Human), UniProt P04062, R534H); assay: In vitro enzyme inhibition assay (4-MU-β-D-Glc substrate), inhibition constants; format: biochemical
Procedure: The binding affinity (defined here by Ki binding constant) of GCase for novel compounds of the present invention were empirically determined using enzyme inhibition assays. In brief, the enzyme inhibition assays used monitored the ability of a test compound to bind and prevent the hydrolysis of a fluorogenic substrate in a concentration-dependent mariner. Specifically, the enzyme activity of recombinant human GCase (rhGCase; Cerezyme®, Genzyme Corp.) was measured using the 4-methylumbelliferyl-β-D-glucopyranoside (4-MU-β-D-Glc) fluorogenic substrate in the absence or in the presence of varying amounts of each test compound. […] The enzyme inhibition assays were performed at both pH 7.0 (endoplasmic reticulum pH) and at pH 5.2 (lysosomal pH) to gain insight into the binding affinity (i.e., potency) of compounds for GCase in the endoplasmic reticulum and lysososome.
Various concentrations of test compounds were prepared in buffer “M” consisting of 50 mM sodium phosphate buffer with 0.25% sodium taurocholate at pH 7.0 and pH 5.2. Enzyme (Cerezyme®, a recombinant form of the human enzyme β-glucocerebrosidase) was also diluted in the same buffer “M” at pH 7.0 and pH 5.2. […] Five microliters of diluted enzyme was added to 15 μl of the various inhibitor concentrations or buffer “M” alone and incubated at 37° C. for 1 hour with 50 μl of the substrate preparation to assess β-glucosidase activity at pH 7.0 and pH 5.2. […] Fluorescence was measured on a plate reader for 1 sec/well using 355 nm excitation and 460 nm emission.

[5] = pH 5.2, Cheng-Prusoff from IC50, read-out: Ki (μM) pH 5.2
[6] = pH 5.2, read-out: IC50 (μM) pH 5.2
[7] = pH 7.0, Cheng-Prusoff from IC50, read-out: Ki (μM) pH 7.0
[8] = pH 7.0, read-out: IC50 (μM) pH 7.0
[9] = pH 5.2, repeated in Table 3A, read-out: Ki pH 5.2
[10] = pH 5.2, repeated in Table 3B, read-out: Ki pH 5.2

recombinant human GCase (rhGCase; Cerezyme®), sequence (P04062 40-536 R534H limits assumed): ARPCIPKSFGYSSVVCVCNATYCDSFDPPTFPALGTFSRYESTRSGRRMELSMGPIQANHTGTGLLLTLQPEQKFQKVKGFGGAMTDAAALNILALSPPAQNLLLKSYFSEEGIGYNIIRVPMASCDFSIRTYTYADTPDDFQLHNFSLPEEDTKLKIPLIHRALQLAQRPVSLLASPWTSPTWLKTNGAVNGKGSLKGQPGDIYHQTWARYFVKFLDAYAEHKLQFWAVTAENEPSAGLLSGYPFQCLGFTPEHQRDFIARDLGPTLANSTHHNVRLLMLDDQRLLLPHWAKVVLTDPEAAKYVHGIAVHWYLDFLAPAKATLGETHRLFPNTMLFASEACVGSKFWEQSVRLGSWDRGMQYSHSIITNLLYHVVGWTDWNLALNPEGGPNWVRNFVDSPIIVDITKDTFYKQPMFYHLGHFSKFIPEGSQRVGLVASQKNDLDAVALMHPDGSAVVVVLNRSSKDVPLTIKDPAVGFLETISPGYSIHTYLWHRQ
lysosomal GCase, sequence (P04062 40-536): as the sequence (P04062 40-536 R534H limits assumed) above, with H495R counted along it
GCase (Homo sapiens (Human), UniProt P04062), sequence (P04062 40-536): as the sequence (P04062 40-536 R534H limits assumed) above, with H495R counted along it
GCase (Mus musculus, UniProt P17439), sequence (P17439 20-515 limits assumed): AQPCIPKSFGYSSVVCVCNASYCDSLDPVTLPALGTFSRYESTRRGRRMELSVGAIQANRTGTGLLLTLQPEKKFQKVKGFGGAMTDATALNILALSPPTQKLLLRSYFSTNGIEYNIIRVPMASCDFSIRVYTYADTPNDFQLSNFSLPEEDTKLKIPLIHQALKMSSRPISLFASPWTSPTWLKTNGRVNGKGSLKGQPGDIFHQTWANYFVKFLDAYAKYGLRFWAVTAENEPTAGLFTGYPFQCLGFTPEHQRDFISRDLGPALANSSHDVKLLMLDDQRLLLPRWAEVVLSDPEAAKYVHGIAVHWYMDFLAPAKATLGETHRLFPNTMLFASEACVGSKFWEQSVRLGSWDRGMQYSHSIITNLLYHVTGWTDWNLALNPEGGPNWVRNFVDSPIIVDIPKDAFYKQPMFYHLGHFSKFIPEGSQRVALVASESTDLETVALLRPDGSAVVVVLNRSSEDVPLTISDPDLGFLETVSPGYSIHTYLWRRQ

| SMILES | EC50 (GCase [1]) | in situ washout (lysosomal GCase) | IC50 (lysosomal GCase) | Ki [4, 5] | IC50 [4, 6] | Ki [4, 7] | IC50 [4, 8] | other results |
| --- | --- | --- | --- | --- | --- | --- | --- | --- |
| CC(F)[C@H]1CNC[C@@H](O)[C@@H]1O (single isomer, unassigned) |  |  |  |  |  |  |  | increase in GCase activity compared to IFG-tartrate (GCase [1]): enhanced enzyme activity to the same maximum level as reference compound IFG-tartrate at much lower concentration; blood brain barrier crossing compared to IFG-tartrate [2]: crossed the blood brain barrier more readily as compared to IFG-tartrate; levels detected in brain compared to IFG-tartrate [2]: higher levels; GCase increase (fold) (GCase [3]; brain, 10 mg/kg FBE p.o., 24-hour washout): 1.5 fold; GCase enhancement in brain and spleen (GCase [3]; mice, p.o.): significant GCase enhancement in brain and spleen; inhibition of GCase activity (lysosomal GCase): inhibited GCase activity; in situ washout from the lysosomal compartment compared to IFG-tartrate (lysosomal GCase; compared to reference compound IFG-tartrate): considerably faster than reference compound IFG-tartrate; AUClast (hr*ng/ml), AUC0-24 hr (Rat pharmacokinetics; IV, 3 mg/kg free base): 1370 ± 109 ng·h/mL; CL (Rat pharmacokinetics; IV, 3 mg/kg free base): 36.47 ± 2.88 mL/min/kg; Cmax (Rat pharmacokinetics; IV, 3 mg/kg free base): 2427 ± 192 ng/mL; VD (Rat pharmacokinetics; IV, 3 mg/kg free base): 6.304 ± 0.927 L/kg; t1/2 (Rat pharmacokinetics; IV, 3 mg/kg free base): 2.06 ± 0.47 h; AUClast (hr*ng/ml), AUC0-24 hr (Rat pharmacokinetics; PO, 10 mg/kg free base): 4251 ± 88 ng·h/mL; t1/2 (Rat pharmacokinetics; PO, 10 mg/kg free base): 3.0 ± 0.22 h; AUClast (hr*ng/ml), AUC0-24 hr (Rat pharmacokinetics; PO, 30 mg/kg free base): 14229 ± 127 ng·h/mL; Cmax (Rat pharmacokinetics; PO, 30 mg/kg free base): 4680 ± 369 ng/mL; AUClast (hr*ng/ml), AUC0-24 hr (Rat pharmacokinetics; PO, 100 mg/kg free base): 50946 ± 713 ng·h/mL; Cmax (Rat pharmacokinetics; PO, 100 mg/kg free base): 15733 ± 622 ng/mL; t1/2 (Rat pharmacokinetics; PO, 100 mg/kg free base): 2.4 ± 0.16 h |
| C[C@H](O)[C@H]1CNC[C@@H](O)[C@@H]1O (single isomer, unassigned) [Cmpd 10] | 1060 ± 120 nM | 12 ± 1.65 h | 798 ± 43 nM | 0.142 ± 0.0088 µM | 0.343 ± 0.021 µM | 0.035 ± 0.0021 µM | 0.066 ± 0.0041 µM |  |
| C[C@@H](F)[C@@H]1CNC[C@@H](O)[C@@H]1O.Cl [Cmpd 14] |  | 3.7 ± 0.63 h |  |  |  |  |  | Emax (%) (GCase [1]): 89.7 ± 3.5% |
| CC(O)[C@H]1CNC[C@@H](O)[C@@H]1O (single isomer, unassigned) |  |  |  |  |  |  |  | increase in GCase activity compared to IFG-tartrate (GCase [1]): enhanced enzyme activity to the same maximum level as reference compound IFG-tartrate at much lower concentration; inhibition of GCase activity (lysosomal GCase): inhibited GCase activity |
| C[C@@H](F)[C@@H]1CNC[C@@H](O)[C@@H]1O.Cl [Cmpd 14, (3R,4R,5R)-5((R)-(1-Fluoroethyl)piperidine 3,4-diol Hydrochloride] | 26 ± 3 nM |  | 61 ± 19 nM | 0.016 ± 0.0007 µM | 0.038 ± 0.0016 µM | 0.004 ± 0.0001 µM | 0.007 ± 0.0003 µM |  |
| C[C@H](F)C1CNC[C@@H](O)[C@@H]1O (stereo in doubt) [Cmpd 13, (3R,4R,5R)-5((S)-1-Fluoroethyl)piperidine 3,4-diol Hydrochloride] |  | 2.7 ± 0.12 h |  |  |  |  |  |  |
| CC(O)[C@H]1CNC[C@@H](O)[C@@H]1O (single isomer, unassigned) [Cmpd 9] | 490 ± 60 nM | 10.5 ± 1.75 h | 518 ± 22 nM | 0.044 ± 0.0017 µM | 0.107 ± 0.0041 µM | 0.01 ± 0.0004 µM | 0.02 ± 0.0008 µM | Emax (GCase [1]): 83.7 ± 2.9% |
| O[C@@H]1[C@@H]([C@H](O)c2ccccc2)CNC[C@H]1O [(3R,4R,5R)-5-((S)-hydroxy(phenyl)methyl)-piperidine-3,4-diol] | 4990 ± 860 nM |  |  | 1.36 ± 0.1 µM | 3.29 ± 0.25 µM | 0.0089 ± 0.0018 µM | 0.017 ± 0.0035 µM | Ki [4, 9]: 1.36 ± 0.1 µM; Ki [4, 10]: 1.36 ± 0.1 µM |
| CC(C)(O)[C@H]1CNC[C@@H](O)[C@@H]1O [(3R,4R,5S)-5-(2-hydroxypropan-2-yl)piperidine-3,4-diol] | 791 ± 162 nM |  |  | 0.097 ± 0.0015 µM | 0.234 ± 0.0037 µM | 0.015 ± 0.0007 µM | 0.029 ± 0.0013 µM | Ki [4, 9]: 0.097 ± 0.0015 µM; Ki [4, 10]: 0.097 ± 0.0015 µM |
